Measurements: patent US20230391881A1, “COMPOSITIONS AND METHODS FOR OVERCOMING DR5-INDUCED IMMUNE EVASION BY SOLID TUMORS” (University of Virginia Patent Foundation, priority 2020, published 2023)
*1 amine or outer side, *2 acyl side, *3 side chain or, on linkers, in order; H or OH if unused. Where a SMILES comes first, the peptide text is derived from it. Bridges are numbered along the chain shown (N, C = ends). Roman numbers before positions name the chains, in order. [ ]: non-standard residue; d: D form. The star is where a group is joined. Actinocin(9to1) = Cc1c2oc3c(C)ccc(C(=O)[*:1])c3nc-2c(C(=O)[*:2])c(N)c1=O; NMeV = CN[C@H](C(=O)O)C(C)C; Cbz = O=C(OCc1ccccc1)*; Sar = CNCC(=O)O

Experiments:
[1] = system: PD-L1; test: Western blotting / flow cytometry of PD-L1 and regulators in tumor cells; format: cell-based, human; settings: for reversal of PD-L1 stability generated by DR5 agonists: MDA-MB-436 cells pretreated 0-8 hours with inhibitor, then DR5 agonist 6 hours
Protocol: Western Blotting. Cells were cultured overnight in tissue culture-treated 6-well plates prior to treatment. After antibody treatment for 48 hours or another indicated time, cells were rinsed with PBS and then lysed with RIPA buffer supplemented with protease inhibitor cocktail (ThermoFisher Scientific). Centrifugation at 14000 rpm for 30 minutes cleared lysates and protein was quantified by PIERCE™ BCA Protein Assay Kit (ThermoFisher Scientific). Western blotting was performed using the Bio-Rad SDS-PAGE Gel system. Briefly, 30 μg of protein was resolved on 10% Bis-Tris gels and then transferred onto PVDF membrane. Membranes were blocked for one hour at room temperature in TBS+0.1% Tween (TBST) with 5% non-fat dry milk. Membranes were probed overnight at 4° C. with primary antibodies. Membranes were washed three times in TBST and then incubated with anti-rabbit or anti-mouse secondary antibodies (1/10,000 dilution, coupled to peroxidase) for 1 hour at room temperature. Membranes were then washed three times with TBST and immunocomplexes were detected with SUPERSIGNAL™ West Pico Chemiluminescent Substrate (ThermoFisher Scientific). Images were taken using a Bio-Rad Gel Doc Imager system.
(§1) Flow cytometry. The cell surface expression of PD-L1, CD47, huDR5, muDR5, CD8, CD4, CD25 etc. was analyzed by flow cytometry. Overnight grown tumors were trypsinized and suspended in FACS buffer (PBS containing 2% FBS). Single cell suspensions were then incubated with primary DR4/DR5 antibodies for 1 hour at 4° C. with gentle mixing. Following wash with FACS buffer, the cells were then incubated with fluorescently labeled anti-Rabbit antibody for 1 hour. Cells were washed and flow cytometry was performed using a BD FACSCALIBUR™ flow cytometer. The data was analyzed by FCS Express (De Novo Software, Los Angeles, California, United States of America) and FlowJo.

[2] = system: MDA-MB-436 cells; test: Flow cytometry of surface PD-L1 on tumor cells treated with DR5 agonist antibodies (FIG. 20B); format: cell-based, human
Protocol: FIGS. 20A-20C. (FIG. 20A) 3 biological replicates of total PD-L1 and GAPDH from triple negative breast cancer cell (MDAMB-436) and ovarian cell (OVCAR-3) lysates treated with lexatumumab for 6 hours. (FIG. 20B) Raw mean fluorescent intensity (MFI) and % positive PD-L1 counts from the cells treated with indicated DR5 agonist antibodies. MFI values are shown on the top of solid color bars. There are multiple instances (shown on the top) where despite having lower % positive PD-L1 population, MFI values were higher after indicated DR5 agonist treatments. As an example, in MDA-MB-436 cells treated with tigatuzumab and lexatumumab, lexatumumab treated cells had higher % positive PD-L1 population (9.32 vs 11.97), however MFI was higher in tigatuzumab treated population (107.54 vs 45.87). (FIG. 20C) KMTR2 treated (50 μg, 4 doses) UCD52 TNBC PDX tumors were stained for PD-L1 using immunohistochemistry (IHC). 3 additional representative images are shown. Also see FIG. 1L.
as §1
PD-L1 surface expression analysis of tumor derived cells. The cell surface expression of PD-L1 from tumor-derived cell was analyzed by flow cytometry. Isolated cells were suspended in FACS buffer (PBS containing 1% FBS). The single cell suspension was then incubated with primary PD-L1 antibodies (1:400 dilution) for 1 hour at 4° C. with gentle mixing. […] Following 3 times wash with FACS buffer, the cells were then incubated with fluorescently labeled (alexa 488) anti-Rabbit secondary antibody for 1 hour. Cells were then washed 3-4 times with FACS buffer and flow cytometry was performed using BD FACSCALIBUR™. The data was analyzed by FCS Express (De Novo Software) and FlowJo software.

[3] = system: PD-L1-PD-1 interaction; test: PD-1/PD-L1 tumor cell-Jurkat cell co-culture luciferase reporter assay; format: cell-based, human; settings: tumor cells pretreated with ROCK1 inhibitor then DR5 agonist
Protocol: PD-1/PD-L1 reporter assay. […] The original kit contains PD-1 effector Jurkat T cells stably express human PD-1 and NFAT-induced luciferase, while PD-L1 aAPC/CHO-K1 cells stably express human PD-L1 and a cell surface protein designed to activate cognate TCRs in an antigen-independent manner. […] Antibodies blocking PD-1-PD-L1 interaction removes inhibitory signals, resulting in luciferase activation. […] Next day, medium was removed from the culture plate and cells were treated with diluted DR5 agonist antibodies. […] Glo response NFAT-luc2/PD1 Jurkat cells (Promega) were re-suspended in assay buffer and incubated with 1 μg/ml anti-CD3 for 2 hours to activate PD1 Jurkat cells. […] After 6 hours of co-culture, assay plates were removed from the incubator; content of each well were mixed thoroughly with the help of multi-channel pipette and then transferred to a white opaque assay plate. 10 mg/ml luciferase reagent was prepared and loaded into the plate reader, which injects 50 μl reagent in each well and measures luminescence immediately. Data was analyzed using Microsoft Excel software. Wherever indicated, inhibitors (ERK, STAT3, Caspase, ROCK1 etc.) were added 2-3 hrs prior to DR5 agonist antibodies in 96 well culture of tumors as described herein.

[4] = system: 4T1 tumors; test: Tumor regression in 4T1 syngeneic TNBC tumor models; format: in vivo, mouse; settings: BALB/c mice, 4T1 tumors; MD5-1 50 μg i.p., GSK269962 2 mg/kg into the tumors (FIG. 4K)
Protocol: FIGS. 4A-4K. DR5 agonist activated ROCK1 functions to help PD-L1 surface mobilization. (FIGS. 4A and 4B) KMTR2 and lexatumumab treated MDA-MB-436 and OVCAR3 (respectively) lysates for indicated early time points were analyzed for caspase-8, caspase-3, ROCK1, pMLC, PARP, PD-L1 and CMTM6 etc. as indicated. Vertical arrows indicate sequential kinetics of caspase-8, ROCK1, and caspase-3 activation, arrows with “n.s.” below them indicate nonspecific band by ROCK1 antibody. (FIG. 4C) OVCAR3 cells were treated with pMLC activating ionophore A23187 (positive control) and lexatumumab ±ROCK1 inhibitors or ±rDR5 or ±rFOLR1. Lysates were later analyzed for ROCK1, pMLC, caspase-3 and PARP with GAPDH as loading control. (FIG. 4D) MDA-MB-436 and OVCAR3 cells were treated with indicated ROCK1 inhibitors 2 hours prior to DR5 agonist KMTR2 treatment. After 4 hours flow cytometry was used to analyze surface PD-L1. […] Relative luciferase signal was quantified and plotted after subtraction of background signal from untreated cells. […] Tumor volumes were quantified at indicated days by caliper measurements. […] Statistical significance in FIG. 4J was determined by unpaired student t-test and in FIG. 4K using two-tailed […] Wilcoxon Mann-Whitney test. […]
FIGS. 6A-6M. […] CD8/CD45 and CD4/CD45 expressing cells were measured by flow cytometry. […] Harvested tumors homogenized followed by quantitation. […]

## C[C@@H]1C[C@@H]([C@H](O)CC2CC(=O)NC(=O)C2)C(=O)[C@@H](C)C1 [Cycloheximide]
[1]
  reversal of PD-L1 stability generated by DR5 agonists: did not also reversed PD-L1 stability

## CC(C)C[C@@H](C=O)NC(=O)[C@H](CC(C)C)NC(=O)[C@H](CC(C)C)NC(=O)OCc1ccccc1 [MG132] (Cbz-Leu-Leu-Leu-aldehyde)
[1]; cell surface or total lysates
  PD-L1 stability with proteasome inhibition (MG132): increased overall PD-L1

## tigatuzumab: Monospecific Antibody, Human DR5 activator; VL and VH SEQ ID NOs: 3 and 4
[2]; MDA-MB-436 cells treated with DR5 agonist antibody (FIG. 20B)
  PD-L1 mean fluorescent intensity (MFI): 107.54
[2]; MDA-MB-436 cells treated with DR5 agonist antibody, raw flow cytometry counts (FIG. 20B)
  % positive PD-L1 population: 9.32%

## Cc1c2oc3c(C)ccc(C(=O)N[C@@H]4C(=O)N[C@H](C(C)C)C(=O)N5CCC[C@H]5C(=O)N(C)CC(=O)N(C)[C@@H](C(C)C)C(=O)O[C@@H]4C)c3nc-2c(C(=O)N[C@@H]2C(=O)N[C@H](C(C)C)C(=O)N3CCC[C@H]3C(=O)N(C)CC(=O)N(C)[C@@H](C(C)C)C(=O)O[C@@H]2C)c(N)c1=O [actinomysin-D] (I: T[dV]P[Sar][NMeV] / II: T[dV]P[Sar][NMeV]; ester I:1-I:C, II:1-II:C; linker I:N-II:N via Actinocin(9to1))
[1]
  reversal of PD-L1 stability generated by DR5 agonists: did not also reversed PD-L1 stability

## CCn1c(-c2nonc2N)nc2cnc(Oc3cccc(NC(=O)c4ccc(OCCN5CCOCC5)cc4)c3)cc21 [GSK269962, N-(3-{[2-(4-Amino-1,2,5-oxadiazol-3-yl)-1-ethyl-1H-imidazo[4,5-c]pyridin-6-yl]oxy}phenyl)-4-[2-(morpholin-4-yl)ethoxy]benzamide]
[3]
  luciferase activity in co-culture reporter assay in presence of ROCK1 inhibitors: Increased average luciferase intensity
[4]
  Tumor regression efficacy (tumor volume): ineffective

## CC1=C(C(=O)Nc2cc3cn[nH]c3cc2F)C(c2ccc(C(F)(F)F)cc2)CC(=O)N1 (centres unmarked) [GSK429286, N-(6-Fluoro-1H-indazol-5-yl)-6-methyl-2-oxo-4-[4-(trifluoromethyl)phenyl]-3,4-dihydro-1H-pyridine-5-carboxamide]
[3]
  luciferase activity in co-culture reporter assay in presence of ROCK1 inhibitors: Increased average luciferase intensity
